{"source": "PubChem BioAssay AID1963850", "about": "(Molecular Pharmacology Branch, DTP, NCI, 2024);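 also: spheroids exposed to drugs for seven days before reading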;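 as to viability, T/C: 100% = DMSO vehicle control viability in luminescence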", "test_system": "192522-019-R-J2-PDC complex tumor spheroid viability", "test": "Anticancer human tumor 192522-019-R-J2-PDC patient-derived colon adenocarcinoma cell line growth inhibition [POLQ]", "conditions": "for IC50: curve of first compound; for viability, T/C: stronger effect = lower value", "in_short": "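Patient-derived tumour cells were co-cultured with HUVEC and mesenchymal stem cells as multicellular spheroids at 37 °C. They were treated with POLQ inhibitors (novobiocin, ART-558, RP6685) alone or combined with other agents. Top concentrations were at or near clinical Cmax (otherwise 10 microM; SN-38 at 1 microM), decreasing in half-log steps.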", "key": {"[1]": {"conditions": "second compound 0.0316 µM, first compound 0.0316 µM"}, "[2]": {"conditions": "second compound 0.0316 µM, first compound 0.1 µM"}, "[3]": {"conditions": "second compound 0.0316 µM, first compound 0.316 µM"}, "[4]": {"conditions": "second compound 0.0316 µM, first compound 1 µM"}, "[5]": {"conditions": "second compound 0.0316 µM, first compound 3.16 µM"}, "[6]": {"conditions": "second compound 0.0316 µM, first compound 10 µM"}, "[7]": {"conditions": "second compound 0.1 µM, first compound 0.0316 µM"}, "[8]": {"conditions": "second compound 0.1 µM, first compound 0.1 µM"}, "[9]": {"conditions": "second compound 0.1 µM, first compound 0.316 µM"}, "[10]": {"conditions": "second compound 0.1 µM, first compound 1 µM"}, "[11]": {"conditions": "second compound 0.1 µM, first compound 3.16 µM"}, "[12]": {"conditions": "second compound 0.1 µM, first compound 10 µM"}, "[13]": {"conditions": "second compound 0.316 µM, first compound 0.0316 µM"}, "[14]": {"conditions": "second compound 0.316 µM, first compound 0.1 µM"}, "[15]": {"conditions": "second compound 0.316 µM, first compound 0.316 µM"}, "[16]": {"conditions": "second compound 0.316 µM, first compound 1 µM"}, "[17]": {"conditions": "second compound 0.316 µM, first compound 3.16 µM"}, "[18]": {"conditions": "second compound 0.316 µM, first compound 10 µM"}, "[19]": {"conditions": "second compound 1 µM, first compound 0.0316 µM"}, "[20]": {"conditions": "second compound 1 µM, first compound 0.1 µM"}, "[21]": {"conditions": "second compound 1 µM, first compound 0.316 µM"}, "[22]": {"conditions": "second compound 1 µM, first compound 1 µM"}, "[23]": {"conditions": "second compound 1 µM, first compound 3.16 µM"}, "[24]": {"conditions": "second compound 1 µM, first compound 10 µM"}, "[25]": {"conditions": "second compound 3.16 µM, first compound 0.0316 µM"}, "[26]": {"conditions": "second compound 3.16 µM, first compound 0.1 µM"}, "[27]": {"conditions": "second compound 3.16 µM, first compound 0.316 µM"}, "[28]": {"conditions": "second compound 3.16 µM, first compound 1 µM"}, "[29]": {"conditions": "second compound 3.16 µM, first compound 3.16 µM"}, "[30]": {"conditions": "second compound 3.16 µM, first compound 10 µM"}, "[31]": {"conditions": "second compound 10 µM, first compound 0.0316 µM"}, "[32]": {"conditions": "second compound 10 µM, first compound 0.1 µM"}, "[33]": {"conditions": "second compound 10 µM, first compound 0.316 µM"}, "[34]": {"conditions": "second compound 10 µM, first compound 1 µM"}, "[35]": {"conditions": "second compound 10 µM, first compound 3.16 µM"}, "[36]": {"conditions": "second compound 10 µM, first compound 10 µM"}}}
{"smiles": "C=CC(=O)N1CCN(c2nc(=O)n(-c3c(C)ccnc3C(C)C)c3nc(-c4c(O)cccc4F)c(F)cc23)C(C)C1", "note": "(centres undefined) + Cc1cccc(N(C)C(=O)C2C(O)CCN2c2nc(C)cc(C(F)(F)F)c2C#N)c1", "values": [{"measurement": "IC50", "setting": "second compound 0.0316 µM", "result": "> 10", "unit": "µM"}, {"measurement": "IC50", "setting": "second compound 0.1 µM", "result": "> 10", "unit": "µM"}, {"measurement": "IC50", "setting": "second compound 0.316 µM", "result": "> 10", "unit": "µM"}, {"measurement": "IC50", "setting": "second compound 1 µM", "result": "> 10", "unit": "µM"}, {"measurement": "IC50", "setting": "second compound 3.16 µM", "result": "> 10", "unit": "µM"}, {"measurement": "IC50", "setting": "second compound 10 µM", "result": "> 10", "unit": "µM"}, {"measurement": "viability, T/C", "setting": "[1]", "result": 114, "unit": "%"}, {"measurement": "viability, T/C", "setting": "[2]", "result": 85, "unit": "%"}, {"measurement": "viability, T/C", "setting": "[3]", "result": 101, "unit": "%"}, {"measurement": "viability, T/C", "setting": "[4]", "result": 93.8, "unit": "%"}, {"measurement": "viability, T/C", "setting": "[5]", "result": 109, "unit": "%"}, {"measurement": "viability, T/C", "setting": "[6]", "result": 97.9, "unit": "%"}, {"measurement": "viability, T/C", "setting": "[7]", "result": 106, "unit": "%"}, {"measurement": "viability, T/C", "setting": "[8]", "result": 91.4, "unit": "%"}, {"measurement": "viability, T/C", "setting": "[9]", "result": 98.8, "unit": "%"}, {"measurement": "viability, T/C", "setting": "[10]", "result": 103, "unit": "%"}, {"measurement": "viability, T/C", "setting": "[11]", "result": 100, "unit": "%"}, {"measurement": "viability, T/C", "setting": "[12]", "result": 110, "unit": "%"}, {"measurement": "viability, T/C", "setting": "[13]", "result": 95.2, "unit": "%"}, {"measurement": "viability, T/C", "setting": "[14]", "result": 96.9, "unit": "%"}, {"measurement": "viability, T/C", "setting": "[15]", "result": 100, "unit": "%"}, {"measurement": "viability, T/C", "setting": "[16]", "result": 105, "unit": "%"}, {"measurement": "viability, T/C", "setting": "[17]", "result": 101, "unit": "%"}, {"measurement": "viability, T/C", "setting": "[18]", "result": 103, "unit": "%"}, {"measurement": "viability, T/C", "setting": "[19]", "result": 102, "unit": "%"}, {"measurement": "viability, T/C", "setting": "[20]", "result": 105, "unit": "%"}, {"measurement": "viability, T/C", "setting": "[21]", "result": 109, "unit": "%"}, {"measurement": "viability, T/C", "setting": "[22]", "result": 106, "unit": "%"}, {"measurement": "viability, T/C", "setting": "[23]", "result": 102, "unit": "%"}, {"measurement": "viability, T/C", "setting": "[24]", "result": 110, "unit": "%"}, {"measurement": "viability, T/C", "setting": "[25]", "result": 102, "unit": "%"}, {"measurement": "viability, T/C", "setting": "[26]", "result": 96.5, "unit": "%"}, {"measurement": "viability, T/C", "setting": "[27]", "result": 108, "unit": "%"}, {"measurement": "viability, T/C", "setting": "[28]", "result": 98, "unit": "%"}, {"measurement": "viability, T/C", "setting": "[29]", "result": 106, "unit": "%"}, {"measurement": "viability, T/C", "setting": "[30]", "result": 113, "unit": "%"}, {"measurement": "viability, T/C", "setting": "[31]", "result": 107, "unit": "%"}, {"measurement": "viability, T/C", "setting": "[32]", "result": 101, "unit": "%"}, {"measurement": "viability, T/C", "setting": "[33]", "result": 107, "unit": "%"}, {"measurement": "viability, T/C", "setting": "[34]", "result": 113, "unit": "%"}, {"measurement": "viability, T/C", "setting": "[35]", "result": 114, "unit": "%"}, {"measurement": "viability, T/C", "setting": "[36]", "result": 107, "unit": "%"}]}
{"smiles": "CC(C)n1c(=O)n(C)c2cnc3cc(F)c(-c4ccc(OCCCN5CCCCC5)nc4)cc3c21", "note": "+ Cc1cccc(N(C)C(=O)C2C(O)CCN2c2nc(C)cc(C(F)(F)F)c2C#N)c1", "values": [{"measurement": "IC50", "setting": "second compound 0.0316 µM", "result": "> 10", "unit": "µM"}, {"measurement": "IC50", "setting": "second compound 0.1 µM", "result": "> 10", "unit": "µM"}, {"measurement": "IC50", "setting": "second compound 0.316 µM", "result": "> 10", "unit": "µM"}, {"measurement": "IC50", "setting": "second compound 1 µM", "result": "> 10", "unit": "µM"}, {"measurement": "IC50", "setting": "second compound 3.16 µM", "result": "> 10", "unit": "µM"}, {"measurement": "IC50", "setting": "second compound 10 µM", "result": "> 10", "unit": "µM"}, {"measurement": "viability, T/C", "setting": "[1]", "result": 113, "unit": "%"}, {"measurement": "viability, T/C", "setting": "[2]", "result": 87, "unit": "%"}, {"measurement": "viability, T/C", "setting": "[3]", "result": 102, "unit": "%"}, {"measurement": "viability, T/C", "setting": "[4]", "result": 103, "unit": "%"}, {"measurement": "viability, T/C", "setting": "[5]", "result": 116, "unit": "%"}, {"measurement": "viability, T/C", "setting": "[6]", "result": 99.3, "unit": "%"}, {"measurement": "viability, T/C", "setting": "[7]", "result": 104, "unit": "%"}, {"measurement": "viability, T/C", "setting": "[8]", "result": 99, "unit": "%"}, {"measurement": "viability, T/C", "setting": "[9]", "result": 107, "unit": "%"}, {"measurement": "viability, T/C", "setting": "[10]", "result": 107, "unit": "%"}, {"measurement": "viability, T/C", "setting": "[11]", "result": 99.8, "unit": "%"}, {"measurement": "viability, T/C", "setting": "[12]", "result": 99.5, "unit": "%"}, {"measurement": "viability, T/C", "setting": "[13]", "result": 94, "unit": "%"}, {"measurement": "viability, T/C", "setting": "[14]", "result": 98.4, "unit": "%"}, {"measurement": "viability, T/C", "setting": "[15]", "result": 108, "unit": "%"}, {"measurement": "viability, T/C", "setting": "[16]", "result": 105, "unit": "%"}, {"measurement": "viability, T/C", "setting": "[17]", "result": 127, "unit": "%"}, {"measurement": "viability, T/C", "setting": "[18]", "result": 104, "unit": "%"}, {"measurement": "viability, T/C", "setting": "[19]", "result": 98.9, "unit": "%"}, {"measurement": "viability, T/C", "setting": "[20]", "result": 110, "unit": "%"}, {"measurement": "viability, T/C", "setting": "[21]", "result": 106, "unit": "%"}, {"measurement": "viability, T/C", "setting": "[22]", "result": 123, "unit": "%"}, {"measurement": "viability, T/C", "setting": "[23]", "result": 116, "unit": "%"}, {"measurement": "viability, T/C", "setting": "[24]", "result": 105, "unit": "%"}, {"measurement": "viability, T/C", "setting": "[25]", "result": 92, "unit": "%"}, {"measurement": "viability, T/C", "setting": "[26]", "result": 103, "unit": "%"}, {"measurement": "viability, T/C", "setting": "[27]", "result": 114, "unit": "%"}, {"measurement": "viability, T/C", "setting": "[28]", "result": 118, "unit": "%"}, {"measurement": "viability, T/C", "setting": "[29]", "result": 134, "unit": "%"}, {"measurement": "viability, T/C", "setting": "[30]", "result": 105, "unit": "%"}, {"measurement": "viability, T/C", "setting": "[31]", "result": 105, "unit": "%"}, {"measurement": "viability, T/C", "setting": "[32]", "result": 94.1, "unit": "%"}, {"measurement": "viability, T/C", "setting": "[33]", "result": 117, "unit": "%"}, {"measurement": "viability, T/C", "setting": "[34]", "result": 114, "unit": "%"}, {"measurement": "viability, T/C", "setting": "[35]", "result": 120, "unit": "%"}, {"measurement": "viability, T/C", "setting": "[36]", "result": 110, "unit": "%"}]}
